Measurements from patent US20120129842A1, “BISTHIAZOLE INHIBITORS OF PRO-MATRIX METALLOPROTEINASE ACTIVATION” (priority 2010, published 2012).

Columns and labels:
[1] = biological target: T1, MMP9 mediated gelatinase activity (Rattus norvegicus, UniProt P50282); assay: Liver in situ zymography of SCW-induced rats dosed with compound; assay type: in vivo; settings: for Intensity (RLU × 10^6) Rat 1 / Intensity (RLU × 10^6) Rat 2 / Intensity (RLU × 10^6) Rat 3 / Intensity (RLU × 10^6) Mean: Day 25-28, liver; for Intensity (RLU × 10^6) Mean: n=3
T1 construct: from tissue; host or cells: liver cryosections of female Lewis rats
T1 sequence (P50282 108-708): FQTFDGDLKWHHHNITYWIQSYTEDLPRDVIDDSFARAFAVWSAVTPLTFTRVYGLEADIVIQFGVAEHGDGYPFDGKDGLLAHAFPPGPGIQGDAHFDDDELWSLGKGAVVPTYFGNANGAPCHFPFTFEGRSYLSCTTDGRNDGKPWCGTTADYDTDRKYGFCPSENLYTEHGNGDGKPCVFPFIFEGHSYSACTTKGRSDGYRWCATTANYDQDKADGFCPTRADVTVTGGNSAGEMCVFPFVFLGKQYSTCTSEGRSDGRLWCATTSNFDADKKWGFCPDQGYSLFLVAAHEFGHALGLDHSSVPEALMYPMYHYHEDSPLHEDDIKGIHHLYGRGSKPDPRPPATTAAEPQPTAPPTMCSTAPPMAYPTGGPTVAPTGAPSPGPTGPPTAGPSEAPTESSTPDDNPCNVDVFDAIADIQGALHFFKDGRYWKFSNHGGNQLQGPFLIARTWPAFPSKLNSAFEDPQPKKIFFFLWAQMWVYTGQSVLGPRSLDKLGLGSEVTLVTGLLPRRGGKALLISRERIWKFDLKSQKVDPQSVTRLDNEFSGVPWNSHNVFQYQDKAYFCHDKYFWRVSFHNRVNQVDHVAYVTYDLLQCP
Source text: In situ zymography provides an alternative approach to assess active MMP9 in tissues (Frederiks). Tissue sections are overlain with fluorescene-conjugated gelatin wherein the conjugation is sufficiently dense to cause the fluorescene to be dye-quenched (DQ). Proteolytic degradation of the DQ-gelatin releases the fluorescene from the quenching effect giving rise to bright green fluorescence at the site of degradation. Because in situ zymography requires the use of frozen sections, calcified tissues are problematic. However, an additional feature of the SCW arthritis model is the development of hepatic granulomatous disease (J Immunol; 1986; 137:2199-2209), and MMP9 reportedly plays a role in macrophage recruitment in the granulomas response to mycobacteria (Infect Immun; 2006; 74:6135-6144). Consequently, granulomatous livers from SCW-treated rats were assessed for active MMP9 by in situ zymography.
As described above, Female Lewis (LEW/N) rats, 5-6 weeks of age (80-100 g) were injected (i.p.) with saline or SCW PG-PS. On day 28, when the granulomatous response was well established, animals were sacrificed and livers were frozen in OCT cryo-sectioning medium and 10 μm sections were cut on a Cryome HM 500 M cryotome and mounted on glass microscope slides. Sections were air dried briefly. MMP9 was confirmed as the source of the gelatinase activity in the liver by treating liver sections with monoclonal antibodies directed against the active site of the two major gelatinases MMP9 and MMP2. Liver sections overlain with 50 μL of 100 μg/mL neutralizing mouse monoclonal antibodies directed against MMP9 (Calbiochem, clone 6-6B), or MMP2 (Millipore, clone CA-4001), or with PBS for 1 hr at room temperature. Tissues were rinsed once with PBS, blotted, and briefly air dried and then overlain with DQ-gelatin (Invitrogen) dissolved to 1 mg/mL in deionized water and then diluted 1:10 in 1% wt/vol low gelling point agarose type VII (Sigma) in PBS. The sections were covered with coverslips, incubated in the dark at room temperature for 20 min, and imaged on an Olympus IX80 inverted microscope fitted with fluorescence optics, using SlideBook™ imaging software (Intelligent Imaging Innovations, Inc., Philadelphia, Pa.; version 5.0). Fluorescence intensity was determined (Table 8). When compared to a saline-treated rat, gelatinase activity was abundantly expressed in granulomatous liver sections obtained from a rat with SCW arthritis.
Next, liver in situ zymography was used to assess the relative presence of active MMP9 in rats dosed with vehicle vs. Example 64. Female Lewis (LEW/N) rats, 5-6 weeks of age (80-100 g) were injected (i.p.) with saline or SCW PG-PS. Commencing on day 25, randomized groups of rats (n=3 rats/group) received vehicle or 20 or 50 mg/kg Example 64 BID by oral gavage. Vehicle consisted of an aqueous mixture containing 2% (v:v) N-methylpyrrolidone, 5% (v:v) glycerine, and 20% (w:v) captisol. Treatment continued daily through the morning of day 28. Four hrs after the AM dose on day 28, rats were sacrificed and livers assessed for active MMP9 by in situ zymography (Table 9). Gelatinase activity was increased markedly in SCW-induced rats, but activity was reduced by approximately 80% in animals treated with 50 mg/kg Example 64.

[2] = biological target: proMMP13(1-268) (SEQ ID NO:7) (Homo sapiens, UniProt P45452); assay: ThermoFluor binding assay with proMMP13(1-268); design: 6xHis (C); made in house; settings: pH 7.0
Procedure, shortened: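 Thermal shift binding with 3.5 μM protein and 25 μM 1,8-ANS in 50 mM HEPES pH 7.0, 100 mM NaCl, 0.001% Tween-20, 2.5 mM MgCl2, 300 μM CaCl2. Samples were heated 40 to 90 °C at 1 °C/min, fluorescence read at 500 nm. Tm shifts across an 11-point DMSO dilution series were fitted with DSC-derived thermodynamic parameters.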

Cc1nc(C)c(-c2csc(Nc3cc(S(N)(=O)=O)ccc3OC(C)C)n2)s1 [Example 64, 3-(2′,4′-Dimethyl-[4,5′]bithiazolyl-2-ylamino)-4-isopropoxy-benzenesulfonamide.HBr]
Intensity (RLU × 10^6) Rat 1 ([1]; 20 mg/kg BID oral): 43.0 RLU × 10^6 | Intensity (RLU × 10^6) Rat 2 ([1]; 20 mg/kg BID oral): 69.0 RLU × 10^6 | Intensity (RLU × 10^6) Rat 3 ([1]; 20 mg/kg BID oral): 53.7 RLU × 10^6 | Intensity (RLU × 10^6) Mean ([1]; 20 mg/kg BID oral): 55.2 RLU × 10^6 | reduction of gelatinase activity in liver ([1]; 50 mg/kg BID oral, Day 25-28): approximately 80% | Intensity (RLU × 10^6) Rat 1 ([1]; 50 mg/kg BID oral): 3.2 RLU × 10^6 | Intensity (RLU × 10^6) Rat 2 ([1]; 50 mg/kg BID oral): 25.6 RLU × 10^6 | Intensity (RLU × 10^6) Rat 3 ([1]; 50 mg/kg BID oral): 4.5 RLU × 10^6 | Intensity (RLU × 10^6) Mean ([1]; 50 mg/kg BID oral): 11.1 RLU × 10^6 | Kd [2]: 140 nM
